Molecules are shown by their SMILES.

This data set has as its system cultured rat hippocampal neurons expressing GFP-tagged P301S tau. Nature of the data set: Accumulation of P301S tau in dendritic spines of cultured hippocampal neurons. The settings on record: 10 μM for 3 days. The class given is cell-based. The text has this: The disproportionate accumulation in dendritic spines of mutant tau linked to FTDP-17 depends upon tau-truncation by Casp2 (Zhao X, et al., Nat Med., 2016, 22, 1268-76). […] The P301S tau mutation linked to FTDP-17 (Bugiani O, et al., J Neuropathol Exp Neurol., 1999, 58, 667-677; and Lossos A, et al., J Neurol., 2003, 250, 733-740) was examined to determine whether Compound 1 could prevent the accumulation of tau in dendritic spines. Dissociated hippocampal neurons from postnatal day 0-1 rat pups were cultured. After 5-7 days in vitro (DIV), the neurons were co-transfected with plasmids encoding DsRed (to label neuronal morphology) and GFP-tagged wild-type or P301S mutant tau proteins (FIG. 2A), as previously described (Hoover B R, et al., Neuron., 2010, 68:1067-1081). Neurons at 17-18 DIV were incubated with 10 μM Compound 1 for 3 days and live neurons were imaged at 20-21 DIV.
For all cultured hippocampal neuron studies all human tau and DsRed constructs were expressed in the pRK5 vector and driven by the cytomegalovirus promoter (Clontech Inc.). Human tau proteins were N-terminally fused to enhance GFP (eGFP). The wild-type, native human tau construct encoded human four-repeat tau lacking the transcriptional-variant N-terminal sequences (0N4R) and contained exons 1, 4, 5, 7, 9-13, 14, and intron 13 (RRID: Addgene_46904). […]

Regarding `Cc1ccc2c(c1)CCN(C(=O)[C@@H](NC(=O)[C@H](CCCC(=O)O)NC(=O)C1Cc3ccccc3N1)C(C)C)[C@@H]2C(=O)N[C@H](C#N)CC(=O)O` (stereo partly drawn) [Compound 1, (8)-6-(((S)-1-((8)-1-(((S)-2-carboxy-1-cyanoethyl)carbamoyl)-6-methyl-3,4-dihydroisoquinolin-2(1H)-yl)-3-methyl-1-oxobutan-2-yl)amino)-5-((S)-indoline-2-carboxamido)-6-oxohexanoic acid], where the note is “compared with untreated wild-type and P301S tau groups”, the “density of dendritic spines” value is listed as “no significant differences”. For the setting “neurons expressing P301S tau, untreated P301S 75.5%, wild-type tau 21.9%”, the “percentage of dendritic spines containing GFP-tagged tau” value came out at 24.8%.

The values above are taken from US20250188123A1, “PROTEASE INHIBITORS” (Regents of the University of Minnesota, priority 2022, published 2025).
